Measurements as given in ChEMBL document CHEMBL1287693, “Selective accumulation of a novel antimalarial rhodacyanine derivative, SSJ-127, in an organelle of Plasmodium berghei” (Bioorg Med Chem, 2010).
Active and inactive are the calls of the source. The rule behind the calls is not given here.

Experiments:
[1] = tested on: Plasmodium berghei; assay: Effect on multidrug resistance protein-mediated Rhodamine 123 drug uptake in blood stage of Plasmodium berghei NK65 mitochondria infected ICR mice (Mus musculus) RBCs at 10 uM after 20 min by fluorescence microscopy
[2] = tested on: Mus musculus; assay: Drug uptake in Plasmodium berghei NK65 infected ICR mice (Mus musculus) RBCs at 40 mg/kg, subcutaneously qd for 3 days after 23 hrs; type: ADME, organism-based; design: dose 40 mg/kg, route subcutaneous; settings: in vivo, sc
[3] = Drug uptake in blood stage of Plasmodium berghei NK65 mitochondria infected ICR mice (Mus musculus) RBCs at 0.25 uM after 20 min using Rhodamine 123 by fluorescence microscopy; type: ADME
[4] = tested on: Plasmodium berghei; assay: Antimalarial activity against Plasmodium berghei NK65 infected in mice (Mus musculus) assessed as reduction of parasitaemia at 40 mg/kg, subcutaneous daily for 3 days; type: functional; design: scale not given: the % may be the effect or the level left
[5] = Drug uptake in blood stage of Plasmodium berghei NK65 nucleus infected ICR mice (Mus musculus) RBCs at 0.25 uM after 20 min using Rhodamine 123 by fluorescence microscopy; type: ADME, tissue-based
[6] = tested on: Plasmodium berghei; assay: Drug uptake in late trophozoite stage of Plasmodium berghei NK65 infected in ICR mice (Mus musculus) RBCs at 10 nM after 20 min using Rhodamine 123 by fluorescence microscopy; type: ADME, organism-based; settings: in vivo, 0.01 µM
[7] = tested on: Plasmodium berghei; assay: Drug uptake in ring stage of Plasmodium berghei NK65 infected in ICR mice (Mus musculus) RBCs at 10 nM after 20 min using Rhodamine 123 by fluorescence microscopy; type: ADME, organism-based; settings: in vivo, 0.01 µM
[8] = tested on: Plasmodium berghei; assay: Antimalarial activity against Plasmodium berghei NK65 infected in mice (Mus musculus) assessed as increase of mice (Mus musculus) survival days at 40 mg/kg, subcutaneous daily for 3 days measured up to 18 months; type: functional, organism-based; design: dose 40 mg/kg
[9] = tested on: Plasmodium berghei; assay: Drug uptake in schizont stage of Plasmodium berghei NK65 infected in ICR mice (Mus musculus) RBCs at 10 nM after 20 min using Rhodamine 123 by fluorescence microscopy; type: ADME, organism-based; settings: in vivo, 0.01 µM
[10] = Drug uptake in blood stage of Plasmodium berghei NK65 infected ICR mice (Mus musculus) RBCs at 0.25 uM after 20 min using Rhodamine 123 by fluorescence microscopy; type: ADME, tissue-based; settings: erythrocyte
[11] = tested on: Plasmodium berghei; assay: Antimalarial activity against Plasmodium berghei NK65 infected in mice (Mus musculus) assessed as reduction of parasitaemia at 40 mg/kg, subcutaneous after 23 hrs (reference value: 8.2 to 25.3 %); type: functional; design: scale not given: the % may be the effect or the level left
[12] = tested on: Plasmodium berghei; assay: Drug uptake in early trophozoite stage of Plasmodium berghei NK65 infected in ICR mice (Mus musculus) RBCs at 10 nM after 20 min using Rhodamine 123 by fluorescence microscopy; type: ADME, organism-based; settings: in vivo, 0.01 µM
[13] = tested on: Plasmodium berghei; assay: Effect on multidrug resistance protein-mediated Rhodamine 123 drug uptake in blood stage of Plasmodium berghei NK65 mitochondria infected ICR mice (Mus musculus) RBCs at 10 nM after 20 min by fluorescence microscopy

SMILES	Drug uptake [1]	Drug uptake [2]	Drug uptake [3]	Activity [4] [%]	Drug uptake [5]	Drug uptake [6]	Drug uptake [7]	Activity [8]	Drug uptake [9]	Drug uptake [10]	Activity [11] [%]	Drug uptake [12]	Drug uptake [13]
N#CC(C#N)=NNc1cccc(Cl)c1	inactive	–	–	–	–	–	–	–	–	–	–	–	–
CCn1c(=O)/c(=C/C=c2\nc3c(o2)=CC=CN3C)s/c1=C\c1sc2ccccc2[n+]1C.[Cl-]	–	Active	Active	100	Active	Active	Active	Active	Active	Active	10.8	Active	Active
CCCCCC[C@H]1C(=O)O[C@H](C)[C@H](NC(=O)c2cccc(NC=O)c2O)C(=O)O[C@@H](C)[C@@H]1OC(=O)CC(C)C	inactive	–	–	–	–	–	–	–	–	–	–	–	–
